Results reported in patent US20140134730A1, “METHOD FOR INHIBITING CELL PROLIFERATION BY OXIDATIVE STRESS” (KYOWA HAKKO KIRIN CO., LTD, priority 2012, published 2014).

Test system: SNU-16
Experiment: Western blot analysis of DNA damage (H2A.X Phospho-Ser139)
Format: cell-based
Conditions: 8 hours, KM4008HV2LV3 10 μg/mL, H2O2 50 μM
Method: Anti-phospho-Histone H2A.X Ser139, clone JBW301 (Millipore Catalog No. 05-636) as a primary antibody and anti-mouse IgG, HRP-linked antibody (CST Catalog No. 7076) as a secondary antibody were used.
SNU-16 was seeded in 10 mL of the assay medium at a density of 2×10^4 cells/mL, and cultured at 37° C. under the conditions of 5% CO2 for 24 hours. Then, KM4008HV2LV3 (final concentration of 10 μg/mL), the solvent solution of antibody, or hydrogen peroxide (H2O2) (final concentration of 50 μM) was added. The cells were left at 37° C. under the conditions of 5% CO2 for 8 hours, and the suspending cells were recovered together with the culture supernatant.
The adherent cells were washed with D-PBS(−) (manufactured by Nacalai Tesque, Catalog No. 14249-95), and then 1.5 mL of TrypLE select (manufactured by Invitrogen, Catalog No. 12563-011) was added and left at 37° C. under the conditions of 5% CO2 for 5 minutes for detachment, and then mixed with the suspending cells recovered in advance to be used in the subsequent manipulations. […]
The cell lysate thus obtained was left on ice for 15 minutes, followed by centrifugation at 15,000 rpm for 15 minutes. The protein concentration in the supernatant thus obtained was determined using a BCA protein assay kit (manufactured by Pierce, Catalog No. 23225). […]

OO [H2O2, hydrogen peroxide]
Phosphorylation signals of H2A.X Ser139 (Western blot) compared to solvent-treated cells: increased
